Assay results from EP0551200A1, “Protein phosphatase inhibitors for use in therapy” (priority 1992, dated 1993).

What was measured:
[1] = system: c-jun; experiment: Northern blot analysis of c-jun gene expression in human fibroblasts; format: cell-based; conditions: OA 500 nM
Method: Quiescent human fibroblasts were incubated with TNF (500 units/ml) (a) or OA (500 nM) (b) for 0, 30, 60 min after which total cellular RNA was extracted. Blots of RNA from these cells were hybridized to radiolabeled (10⁶ cpm/ml) Egr-1 cDNA probe. c, the blot in b was stripped and reprobed with c-jun cDNA. Note: Egr-1 mRNA probe was not completely stripped from the blot. The autoradiograph of the blot is presented. d, regularly maintained cells were incubated wither with no additions (control, 0 time) or with OA for 1, 3, 5, 7 h and Northern analysis was carried out with an IL-6 cDNA probe (ATCC, Rockville, MD, US).
Preparation of RNA and Northern Analysis - Human fibroblasts (4 x 10⁶) were seeded in 175cm² tissue culture flasks and incubated at 37°C for 6 days in regular medium. The cells were fed with regular medium on day 3. On day 6 the medium was replaced by minimal essential medium containing 0.25% fetal calf serum and incubated for another 48 h to maintain the cells in a quiescent state. Quiescent or regularly maintained cells were treated with a specific agonist for the times indicated (see Fig. 7). The cells were harvested and total cytoplasmic RNA isolated by a one-step guanidinium thiocyanate/phenol/chloroform method. […] The blots were autoradiographed and quantitated by the Visage 2000 Image system (BioImage Products, Ann Arbor, MI, US).

[2] = system: Egr-1 mRNA; experiment: Stability of induced Egr-1 mRNA after actinomycin D, Northern blot, Balb/c 3T3 cells; format: cell-based, mouse; conditions: actinomycin D 25 µg/ml
Method: (A). Quiescent Balb/c 3T3 cells were incubated with either 0.5 µM of okadaic acid or 20% serum for 3 h or 0.5 h, respectively. Actimomycin D (final concentration being 25 µg/ml) was then added. The cells were then harvested at 0.5, 1, 1.5, 2 and 3 h after the addition of actinomycin D. RNA was isolated from these cells and analyzed by Northern blot. The blot was probed with Egr-1 or GADPH cDNA.
Quiescent mouse Balb/c 3T3 fibroblasts were incubated with DMEM containing either 0.5µM okadaic acid or 10% fetal calf serum for the times indicated in Fig. 10. […] Cells were harvested at the indicated time points and extracted for RNA and the RNA subjected to Northern blot analysis (Fig. 10).

[3] = system: mouse fibroblasts; experiment: Total cellular protein synthesis in mouse fibroblasts; format: cell-based; conditions: data not shown
Method: Quiescent human fibroblasts were stimulated with MEM containing 0.5 µM okadaic acid in the presence or absence of cycloheximide (10 µg/ml) for the times indicated in Fig. 11. […] Treatment of cells with cycloheximide enhanced the induction of Egr-1 mRNA by okadaic acid at 1.5 and 3 h (Fig. 11). Similarly puromycin, like cycloheximide, also "superinduces" the induction of the Egr-1 mRNA by okadaic acid (data not shown). […] However, in view that protein phosphatase 1 (PP1) and protein phosphatase 2A (PP2A) regulate enzymes associated with cellular protein synthesis (Cohen, Annu. Rev. Biochem. 58, 453-508, 1989) the effect of okadaic acid on protein synthesis in mouse and human fibroblasts was also measured. […] By then the Egr-1 mRNA message was already induced. A corollary to this is a comparison of the amount of ³⁵S-methionine labelled Egr-1 protein immunoprecipitated by R5232 antibodies from protein phosphatase inhibitor-treated and control cells. […] Thus, the induction of the Egr-1 gene by phosphatase inhibitors is unlikely to be mediated by their late inhibitory effects on cellular protein synthesis.

[4] = system: Egr-1 protein; experiment: Western blot analysis of Egr-1 protein from primary human fibroblasts; format: cell-based
Method: Quiescent primary human fibroblasts were incubated with MEM containing 0.5 µM of okadaic acid for the times indicated. As a positive control, the quiescent cells were also incubated with medium containing 20% fetal calf serum for 2 h. Total cellular proteins were extracted and subjected to Western blot analysis as described previously (Cao et al, Mol. Cell. Biol. 10, 1931-1939, 1989). The blot was reacted with anti-Egr-1 polyclonal antibody (R5232).
Cellular proteins were extracted from quiescient, okadaic acid-treated and serum-treated human fibroblasts and subjected to Western blot analysis using rabbit polyclonal Egr-1 antibodies. In the control quiescent cells, traces of Egr-1 protein with molecular masses of 80 kDa and 100 kDa were detected. An approximately 6-fold increase of the 80 kDa protein was measured in the cells 2 h after serum stimulation. An approximately 2-fold increase in the 80 kDa Egr-1 protein was detected in the cells after 1 h okadaic acid treatment. However, at 2.5 h after okadaic acid treatment the Egr-1 protein was mostly detected as the 100 kDa moiety rather than as the 80 kDa protein (Fig. 13). […] By 6 h after okadaic acid treatment the cellular level of the 100 kDa Egr-1 protein was reduced (Fig. 13). […]

In the case of `C=C1[C@@H](O)[C@@H]2O[C@]3(CC[C@H](/C=C/[C@@H](C)[C@@H]4CC(C)=C[C@@]5(O[C@H](C[C@@](C)(O)C(=O)O)CC[C@H]5O)O4)O3)CC[C@H]2O[C@@H]1[C@@H](O)C[C@H](C)[C@H]1O[C@@]2(CCCCO2)CC[C@H]1C` [okadaic acid], the “time to induction of c-jun” value [1] is reported as ≤ 60 min, the “time for which induced Egr-1 mRNA is detectable after actinomycin D treatment” value ([2]; 0.5 µM) is reported as “up to 5.5 h” and the “half life of the induced Egr-1 message” value ([2]; calculated from the data in Fig. 10) is reported as “about 120 min”. For the same compound, the “effect on total cellular protein synthesis (in words)” value ([3]; 0.5 µM, first 2 h) was “little measurable effect”, the inhibition at 0.5 µM ([3]; Mus musculus, Fibroblast, at 4 h) was ≤ 50% and the “level of the 100 kDa Egr-1 protein relative to the 80 kDa Egr-1 protein of control cells” value ([4]; 0.5 µM, 2.5 h) was 3 to 4 fold. The fold induction at 0.5 µM ([4]; Homo sapiens, Fibroblast, 1 h, read-out: increase in the 80 kDa Egr-1 protein) was ~2.
